This is an account of results in article PMC12130866, “Identification of the lydiamycin biosynthetic gene cluster in a plant pathogen guides structural revision and identification of molecular target” (Proceedings of the National Academy of Sciences of the …, 2025).

Converted amounts (≈) assume the structure as drawn. Numbered stars: 1 amine (or outer) side, 2 acyl side, 3 side chain; on linkers, the order of the positions; unused ones are H or OH. Bridge positions count the residues as written; N and C are the ends. Square brackets hold non-standard residues; d marks the D form. Peptide text beside a SMILES is read from it. * marks the point of attachment. Piz(1,6-dehydro) = O=C(O)[C@@H]1CCC=NN1; X2 = O=C([C@@H]1CCCNN1[*:1])[*:2]; X1 = CCCCC[C@H](CC(=O)O)C(=O)* Some results are limits rather than exact numbers.

Series [1] has as its target T1, E. coli PDF (Escherichia coli, UniProt P0A6K3). The series is described as follows: Michaelis-Menten kinetics of E. coli PDF with fML-pNA. It counts as biochemical. The settings on record: substrate fML-pNA, 405 nm, room temperature; 1% DMSO.
Series [2] concerns the target T1, E. coli PDF. The series is described as follows: In vitro PDF inhibition assay, E. coli PDF, fML-pNA colorimetric coupled. Conditions: in vitro inhibition of E. coli PDF (10 nM); fML-pNA 20 µM; Aeromonas aminopeptidase 0.8 U/mL; lydiamycin A 0-50 µM; HEPES buffer pH 7.5, 1% DMSO; 405 nm, room temperature; sigmoidal fit of initial velocities; n = 3 independent experiments, SD. It counts as biochemical.

For series [3], the system named is R. fascians D188-5.
The next series has as its system R. fascians D188 WT. Conditions: 72 h.
The next series concerns mycobacteria. Conditions: cited from earlier work.
In series [4] the test system is R. fascians D188-5. In words: In planta competition assay, WT or Δlyd against plasmid-free D188-5. Conditions: N. benthamiana seedlings, 1:1 mixtures, 1 wk; WT vs Δlyd relative fitness P = 0.0068, two-tailed t test.

T1 sequence (P0A6K3 whole entry): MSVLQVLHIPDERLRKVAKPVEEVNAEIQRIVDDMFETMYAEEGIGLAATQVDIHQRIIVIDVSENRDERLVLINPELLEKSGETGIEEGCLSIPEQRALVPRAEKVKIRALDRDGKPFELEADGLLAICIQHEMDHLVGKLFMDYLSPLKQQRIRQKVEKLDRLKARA

The term Km denotes the concentration of substrate that gives half-maximal velocity. What is called kcat is the maximal rate divided by the concentration of active sites. For the molecule “formyl-methionyl-leucyl-p-nitroaniline [fML-pNA]”, at E. coli PDF [1], the Km worked out at 27 µM and the kcat is 7 s⁻¹.
In general, IC50 refers to the midpoint of a concentration-inhibition curve. Higher therefore signals weaker potency. By MIC is commonly meant the smallest concentration in the dilution series that meets the test's criterion for growth inhibition. Lower therefore signals inhibition by little substance. As to `CCCCC[C@H](CC(=O)O)C(=O)N1N=CCC[C@H]1C(=O)N[C@H]1COC(=O)[C@@H]2CCCNN2C(=O)[C@H](C)NC(=O)[C@@H](CC(C)C)NC1=O` [lydiamycin A] (X1-[Piz(1,6-dehydro)]S[dL]A[X2]; ester 2-C), the IC50 on E. coli PDF [2] turned out to be 6 µM. Further, the values for the MIC in the series on R. fascians D188-5 [3] (72 h) and with R. fascians D188 WT were 10 µg/mL (≈ 15.1 µM) and > 600 µg/mL, respectively. Besides, the “sensitivity of R. fascians D188-5 relative to R. fascians WT” value with R. fascians D188-5 [3] (D188-5 more sensitive than WT, from the MICs) was “at least 60 times”. Also, the “role of lydiamycin A production in leafy gall disease development” value in the series on Nicotiana plants (WT versus Δlyd, plant or leafy gall mass at 4 wk) was “not required for leafy gall disease development”. For the same molecule, the phytotoxic activity entry with Nicotiana plants (concluded from plant/gall mass, seedling root length and excised leaf assays, R. fascians WT versus Δlyd) was “does not have phytotoxic activity”. Further, in the series with mycobacteria, the inhibition of mycobacteria entry is listed as “previously shown to display antimycobacterial activity”. Also, the “fitness effect of lydiamycin production in competition with D188-5” value in the series on R. fascians D188-5 [4] is reported as “significant fitness benefit”.
